A short description of experiment [1]: Inhibitory concentration required to double thrombin clotting time. It is filed as functional, Homo sapiens.
The target of experiment [2] is T1, Prothrombin (Homo sapiens, UniProt P00734). Briefly: Inhibitory concentration against thrombin when incubated with the compound for 3 min.
Experiment [3] is described as follows: Inhibitory concentration required to double thrombin clotting time in batch 1. It is filed as functional, Homo sapiens.
Experiment [4] is described as follows: Inhibitory concentration required to double thrombin clotting time in batch 2. It is filed as functional, Homo sapiens.
The target in experiment [5] is T1, Prothrombin. Description: Inhibitory concentration against thrombin when incubated with the compound for 3 min in batch 1.
Experiment [6] concerns the target T1, Prothrombin. Briefly: Inhibitory concentration against thrombin when incubated with the compound for 3 min in batch 2.
Experiment [7] has as its target T1, Prothrombin. Description: Overall Inhibitory constant against thrombin was determined.

For four compounds, IC50 and Ki results are on record in ChEMBL document CHEMBL1150032, “-hydroxy- and -ketoester functionalized thrombin inhibitors” (Bioorg Med Chem Lett, 1992).

As to `NC(N)=NCCC[C@@H](C=O)NC(=O)[C@@H]1CCCN1C(=O)[C@H](N)Cc1ccccc1`, the IC50 in experiment [1] was found to be 400 nM; at Prothrombin [2], 49 nM.

`COC(=O)[C@@H](O)[C@H](CCCCN)NC(=O)[C@@H]1CCCN1C(=O)[C@H](N)Cc1ccccc1`: the IC50 is > 300000 nM in experiment [3], > 300000 nM in experiment [4], 30500 nM against Prothrombin [5] and 20200 nM against Prothrombin [6].

Regarding `COC(=O)C(O)(OC)C(CCCCN)NC(=O)[C@@H]1CCCN1C(=O)[C@H](N)Cc1ccccc1` (stereo not given in full), the IC50 stood at 390 nM in experiment [1] and 32 nM on Prothrombin [2]. In addition, the Ki on Prothrombin [7] was determined as 1.7 nM.

Compound `COC(=O)C(O)[C@H](CCCCN=C(N)N)NC(=O)[C@@H]1CCCN1C(=O)[C@H](N)Cc1ccccc1` (stereo not given in full) displayed an IC50 against Prothrombin [2] of 48000 nM.
